Results taken from patent US11033562B2, “Carbohydrate derivatives used for surface modification of immune cells, use thereof and method thereof” (Xiamen Nuokangde Biological Technology Co., Ltd., priority 2018, dated 2021).

System: CD22-fc
Test: Analysis of CD22 ligand on surfaces of NK-92 cells (CD22-fc binding, flow cytometry and confocal)
Format: cell-based
Conditions: NK-92 cells incubated with the sialic acid derivative; FIGS. 7A and 7B
Protocol: Culturing ATCC (American Type Culture Collection)-derived NK-92 (ATCC® CRL2407™) cells (also known as NK-92 cell lines) on a fourth alpha-MEM growth medium (comprising 12.5% (v/v) newborn bovine serum, 12.5% (v/v) horse serum, 100 U/ml recombinant IL-2) in an incubator with 5% (v/v) CO2 atmosphere at 37° C., then replacing the fourth alpha-MEM growth medium with a fifth alpha-MEM growth medium (comprising 2 mMPB-sia), continuing to culture for 48 hours, and washing for three times to obtain MPB-sia modified NK-92 cells, which is referred to as MsNK-92 cells.
Washing MPB-sia or BPC-sia modified NK-92 cells with PBS buffer for three times, adding 100 μL, PBS, adding 1 μg CD22-fc to obtain a first mixture, then culturing the first mixture on ice for 30 minutes, washing three times with PBS buffer, then adding anti-CD22-PE to obtain a second mixture, culturing the second mixture on ice for 30 minutes, washing three times, then collecting cells, quantifying the extent of CD22 binding by flow cytometry analysis, and imaging by confocal microscopy.
Increasing the concentration of MPB-sia enhanced the levels of CD22 ligand expression on cell surfaces reaching a maximum at 4 mM of MPB-sia at 24 hours (FIG. 8A). […] Next, the persistence of CD22 ligands on engineered NK-92 cells was analyzed. […]

## CC(=O)N[C@H]1[C@H]([C@H](O)[C@H](O)CO)OC(O)(C(=O)O)C[C@@H]1O (stereo partly shown) [sialic acid (sia), sialic acid (N-acetylneuraminic acid)]
  CD22 binding to NK-92 cells (flow cytometry): little binding with CD22 over the background
